Earlier results, collected in patent publication US20250049842A1, “THERAPEUTIC BLOOD-ACID-SHIFTING COMPOSITIONS AND METHODS” (priority 2023, published 2025).

Conditions: for pKa (pKa1, first or only dissociation): step (1) HA/A−; for pKa2 (second dissociation): step (2)

Row | pKa2 (second dissociation) | pKa (third dissociation) (step (3)) | pKa (fourth dissociation) (step (4)) | SMILES | pKa (pKa1, first or only dissociation)
1 | – | – | – | [O-][Cl+2]([O-])O [Chloric Acid] | < 1
2 | 2.71 | 4.68 | 7.53 | Nc1nc2ncc(CNc3ccc(C(=O)N[C@@H](CCC(=O)O)C(=O)O)cc3)nc2c(=O)[nH]1 [Folic Acid, reference compound] | 1.63
3 | – | – | – | O=[N+]([O-])O [Nitric Acid] | < 1
4 | – | – | – | O=NO [Nitrous] | 3.39
5 | – | – | – | [O-][Cl+3]([O-])([O-])O [Perchloric Acid] | < 1
6 | – | – | – | CC(=O)C(=O)O [Pyruvic Acid] | 2.49
7 | 6.91 | – | – | O=S(O)O [Sulfurous Acid] | 1.18
